Entries after “also recorded” stand apart in the source; their conditions may differ.

From patent US11596626B2, “Compound for use against pathogenic Neisseria and Haemophilus species and Moraxella catarrhalis” (priority 2017, dated 2023) come the findings set out here.

Data set [1] concerns multidrug-resistant N. gonorrhoeae isolate from Slovenia. As to the kind of experiment: Growth curves in liquid culture (optical density) vs DMSO control. The data set is classed as cell-based, Neisseria gonorrhoeae. The protocol: Growth experiments with NQNO were conducted against Neisseria gonorrhoeae strain MS11 (Edwards, M., et al., Antigenic analysis of gonococcal pili using monoclonal antibodies, J Exp Med, 1984. 160(6): p. 1782-91) and a multidrug-resistant N. gonorrhoeae isolate from Slovenia (Unemo M, Golparian O, Potočnik M, Jeverica S. Treatment failure of pharyngeal gonorrhoea with internationally recommended first-line ceftriaxone verified in Slovenia, September 2011. Euro Surveill. 2012; 17(25):pii=20200), Neisseria macacae, and Lactobacillus brevis. The bacteria were inoculated in GC (Difco™ GC medium Ref. 228950, BD Becton Dickinson) and PPM broth (15 g/L Proteon Pepton, 1 g/L soluble starch, 5 g/L NaCl, 4 g/L KH2PO4, 1 g/L K2HPO4, pH 7.5) (Neisseriae) or TSB (BBL™ Trypticase Soy Broth Ref 211768, BD Becton Dickinson) (Lactobacillus) supplemented with solvent (DMSO) or the indicated concentrations of NQNO (5-50 04) and their growth at 37° C. was monitored over the course of 10 h by optical density readings in 30 minute intervals. […]
Before every experiment, bacteria were pre-cultured in 5 ml liquid medium for at least 2 hours then harvested and resuspended in PBS (phosphate buffered saline). Optical density (OD) was determined and a volume equal to an OD of 0.2 was inoculated into 5 ml of the respective medium. […] Optical density was determined every 0.5 h.

For another data set, the system named is HeLa cells. Description: MTT assay of metabolic activity (cytotoxicity). The data set is classed as cell-based, human. The protocol:
HeLa cells in 24-well plate were incubated for 24 h with concentrations of 0.5 to 10 μM NQNO or solvent (DMSO) as a control. Metabolic activity as a measure of mitochondrial respiration was recorded using 3-(4,5-Dimethylthiazol-2-yl)-2,5-diphenyltetrazoliumbromid (MTT) as reporting agent, Activity was measured with a plate reader at 550 nm, (FIG. 6). Shown are mean values+/S.D. of four replicate wells.
HeLa S3 cells were cultivated in Dulbecco's modified Eagle's medium (DMEM) medium supplemented with 10% fetal calf serum and passaged every 2-3 days. Primary human vaginal epithelial cells (hVEC/MS74) were obtained from A. J. Schaeffer (Feinberg School of Medicine, Northwestern University, Chicago, Ill.) and are derived from vaginal tissue of a post-menopausal person. The cell line was created through immortalization of these cells with human papilloma virus 16, E6 and E7 genes according to literature (N. Rajan et. al., Characterization of an immortalized human vaginal epithelial cell line. J Urol 163, 616-622 (2000)). […]
All plates were coated overnight at 4° C. with 0.1% gelatine in PBS before use. […] 0D550 was measured using a Thermo Fisher Varioskan Flash spectrophotometer.

Data set [2] is described as follows: Tissue integrity and tolerability after topical vaginal application in CEAtg mice. The data set is classed as in vivo. The protocol: 6 to 8 week old, female CEA-transgenic mice were infected with N. gonorrhoeae. 2 h after infection, the animals were treated with 20 μl buffer containing solvent (DMSO) or 50 μM NQNO (Compound represented by the Formula (5)). 20 h later, the genital tract was excised and cryosections were stained for cell nuclei (Hoechst; blue), human CEA (red) and N. gonorrhoeae (gonococci, green) (FIG. 8).
Additional cryosections from the same samples were stained for cell nuclei (Hoechst; blue), human collagen (red) and N. gonorrhoeae (gonococci, green) (FIG. 9).
6 to 8 week old, female CEA-transgenic mice were treated with 20 μl buffer containing solvent (DMSO) or 50 μM NQNO (Compound represented by the Formula (5)). 20 h later, the genital tract was excised, fixed, paraffin embedded and tissue sections were stained with HE (Haematoxilin/Eosin) solution.
In particular, in the above experiment the genital tract of infected and NQNO/DMSO or DMSO treated animals was excised and placed in 4% neutral buffer containing formalin overnight followed by 0.4% PFA (paraformaldehyde) treatment. The tissue was then dehydrated and embedded in paraffin. 10 μm serial sections were cut, deparaffinized and rehydrated in a graded series (100% to 75%) of ethanol. Sections were serially stained with Hematoxilin solution according to Mayer (Sigma) and 0.5% Eosin G solution (Roth).

Take `CCCCCCCCCc1cc(=O)c2ccccc2n1O` [NQNO, 1-Hydroxy-2-nonylquinolin-4(1H)-one]: the “Concentration leading to complete growth inhibition” value in data set [1] (37° C., 10 h, FIG. 2) was at most 5 µM; in data set [1] (mass concentration given for 5 μM) it was below 1.4 µg/mL. For the same compound, the “Cytotoxicity (metabolic activity, MTT)” value is “does not lead to cytotoxicity” with HeLa cells (10 μM, up to 24 h, preliminary experiment, FIG. 6) and “did not exhibit signs of cytotoxicity” in the data set with HeLa cells (up to 10 μM, 48 h, FIG. 12). Further, in data set [2] (CEAtg mice, 20 μl of 50 μM, 20 h, FIG. 10), the “Histology of vaginal tract epithelium (HE staining)” value was “intact striated epithelium”. Further, in data set [2] (infected CEAtg mice, 20 μl of 50 μM topical, 20 h, FIGS. 8 and 9), the “Integrity of mucosal surface and subepithelial tissue (CEA and collagen staining)” value is “continuous and unaltered mucosal surface; also recorded: does not damage the mucosal surface”. In addition, in data set [2] (single topical application), the “Signs of discomfort in treated mice” value is reported as “did not show any signs of discomfort”.
